Experimental data as given in patent US10947242B2, “[1,2,4]triazolo[1,5and#8208;A]pyrimidine compounds as PDE2 inhibitors” (Janssen Pharmaceutica NV, priority 2016, dated 2021).
Where two headings read alike, the source gives them in different places.

Assays:
[1] = target: T1, Human recombinant PDE2A (hPDE2A) (Homo sapiens, UniProt O00408); test: In vitro assay PDE2A (SPA, 3H-cGMP hydrolysis); format: biochemical; details: for Emax: read-out: hPDE2A Emax
T1 construct: His tag (inferred from metal chelate purification); made in house; host or cells: Sf9 insect cells (baculovirus)

[2] = target: T2, Human recombinant PDE10A (hPDE10A) (Homo sapiens, UniProt Q9Y233); test: In vitro assay PDE10A, human clone (SPA, 3H-cAMP hydrolysis); format: biochemical
T2 construct: His tag (inferred from metal chelate purification); made in house; host or cells: Sf9 insect cells (baculovirus)
Outline: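 Human recombinant PDE10A was expressed in Sf9 cells via baculovirus and incubated with compound in 50 mM Tris pH 7.8, 8.3 mM MgCl2, 1.7 mM EGTA. Substrate was 60 nM cAMP plus 0.008 μCi 3H-cAMP for 60 min at room temperature, read by SPA scintillation counting. Controls used 1% DMSO, and blanks omitted enzyme.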

PDE2A = target: T3, PDE2A (Rattus norvegicus, UniProt Q01062); test: PDE2 occupancy by test compounds, ex-vivo autoradiography with [3H]B-17a; format: in vivo, Male Wistar rats; details: 10 mg/kg, percentage receptor occupancy, ex-vivo autoradiography, striatum
T3 construct: Twenty μm-thick striatal sections were cut; from tissue; host or cells: rat brain, striatal sections
T3 sequence (Q01062 1-928): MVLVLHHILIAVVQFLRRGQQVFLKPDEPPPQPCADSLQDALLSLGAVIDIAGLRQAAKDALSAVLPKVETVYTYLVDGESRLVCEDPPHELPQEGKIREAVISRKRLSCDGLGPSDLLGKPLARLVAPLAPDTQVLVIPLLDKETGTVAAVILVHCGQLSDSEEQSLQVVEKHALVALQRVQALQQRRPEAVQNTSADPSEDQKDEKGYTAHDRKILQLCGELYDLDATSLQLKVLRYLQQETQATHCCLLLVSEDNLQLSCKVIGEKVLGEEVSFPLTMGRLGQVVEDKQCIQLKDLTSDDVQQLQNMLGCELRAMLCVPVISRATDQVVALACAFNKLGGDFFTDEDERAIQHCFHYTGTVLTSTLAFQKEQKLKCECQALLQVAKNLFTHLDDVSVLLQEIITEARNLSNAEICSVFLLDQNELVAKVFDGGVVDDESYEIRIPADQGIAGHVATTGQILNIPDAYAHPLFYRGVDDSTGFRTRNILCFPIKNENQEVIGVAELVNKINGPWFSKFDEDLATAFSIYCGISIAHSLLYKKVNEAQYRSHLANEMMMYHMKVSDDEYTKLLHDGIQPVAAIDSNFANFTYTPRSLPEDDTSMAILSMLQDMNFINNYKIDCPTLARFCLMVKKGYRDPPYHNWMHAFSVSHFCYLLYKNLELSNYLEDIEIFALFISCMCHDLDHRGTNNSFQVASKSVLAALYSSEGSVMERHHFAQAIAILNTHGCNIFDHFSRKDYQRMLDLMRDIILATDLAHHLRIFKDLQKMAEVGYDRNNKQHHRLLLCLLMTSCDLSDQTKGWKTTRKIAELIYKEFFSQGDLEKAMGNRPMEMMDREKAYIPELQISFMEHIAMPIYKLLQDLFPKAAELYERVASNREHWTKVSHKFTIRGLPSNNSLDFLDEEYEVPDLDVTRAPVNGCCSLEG

[3] = target: T4, Human recombinant PDE3A (hPDE3A) (Homo sapiens, UniProt Q14432); test: In vitro assay PDE3A (SPA, 3H-cAMP hydrolysis); format: biochemical; details: for IC50: hPDE3B pIC50, read-out: pIC50 (converted); for Emax: read-out: hPDE3B Emax, read-out: Emax;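 for all read-outs here: the method names PDE3A and the table heading PDE3B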
T4 construct: purchased Scottish Biomedical; host or cells: Sf9 insect cells
Outline: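 Human PDE3A, cloned from brain, as partially purified Sf9 lysate. Substrate 0.4 μM cAMP plus [3H]-cAMP (2.4 μCi/ml final) in 50 mM Tris pH 7.8, 8.3 mM MgCl2, 1.7 mM EGTA, 60 min at room temperature, 1% DMSO final. Hydrolysis read by SPA scintillation counting against no-enzyme blanks and DMSO controls.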

[4] = human recombinant PDE2A, 10 μM cGMP substrate, read-out: hPDE2A pIC50 (converted)
[5] = read-out: hPDE2A pIC50 (converted)
[6] = human clone (h), default, read-out: hPDE10A2 Emax
[7] = human clone (h), default, read-out: hPDE10A2 pIC50 (converted)
[8] = human clone by default (no (r) mark), read-out: hPDE10A2 or rPDE10A2 Emax
[9] = human clone by default (no (r) mark), read-out: hPDE10A2 or rPDE10A2 pIC50 (converted)

T2 sequence (Q9Y233 267-1055): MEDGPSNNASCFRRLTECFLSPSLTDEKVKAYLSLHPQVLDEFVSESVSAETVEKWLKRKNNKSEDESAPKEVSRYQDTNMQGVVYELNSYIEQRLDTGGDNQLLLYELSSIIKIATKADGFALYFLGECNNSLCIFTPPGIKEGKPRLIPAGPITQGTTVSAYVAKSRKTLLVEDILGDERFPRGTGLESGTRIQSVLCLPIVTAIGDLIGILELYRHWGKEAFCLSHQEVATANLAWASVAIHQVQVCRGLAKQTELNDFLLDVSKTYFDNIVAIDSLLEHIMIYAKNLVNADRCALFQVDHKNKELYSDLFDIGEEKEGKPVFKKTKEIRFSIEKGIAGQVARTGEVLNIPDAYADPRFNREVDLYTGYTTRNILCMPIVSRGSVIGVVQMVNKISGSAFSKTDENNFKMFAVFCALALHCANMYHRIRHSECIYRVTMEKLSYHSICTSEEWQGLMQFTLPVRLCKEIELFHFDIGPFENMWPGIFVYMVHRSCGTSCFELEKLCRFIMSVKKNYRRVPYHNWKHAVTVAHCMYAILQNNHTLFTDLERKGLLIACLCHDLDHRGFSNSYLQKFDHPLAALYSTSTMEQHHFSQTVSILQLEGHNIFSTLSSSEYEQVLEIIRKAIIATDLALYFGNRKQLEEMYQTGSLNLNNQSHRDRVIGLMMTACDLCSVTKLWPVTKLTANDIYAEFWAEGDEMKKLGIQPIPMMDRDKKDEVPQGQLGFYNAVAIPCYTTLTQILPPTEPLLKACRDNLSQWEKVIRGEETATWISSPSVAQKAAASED
T4 sequence (Q14432 whole entry): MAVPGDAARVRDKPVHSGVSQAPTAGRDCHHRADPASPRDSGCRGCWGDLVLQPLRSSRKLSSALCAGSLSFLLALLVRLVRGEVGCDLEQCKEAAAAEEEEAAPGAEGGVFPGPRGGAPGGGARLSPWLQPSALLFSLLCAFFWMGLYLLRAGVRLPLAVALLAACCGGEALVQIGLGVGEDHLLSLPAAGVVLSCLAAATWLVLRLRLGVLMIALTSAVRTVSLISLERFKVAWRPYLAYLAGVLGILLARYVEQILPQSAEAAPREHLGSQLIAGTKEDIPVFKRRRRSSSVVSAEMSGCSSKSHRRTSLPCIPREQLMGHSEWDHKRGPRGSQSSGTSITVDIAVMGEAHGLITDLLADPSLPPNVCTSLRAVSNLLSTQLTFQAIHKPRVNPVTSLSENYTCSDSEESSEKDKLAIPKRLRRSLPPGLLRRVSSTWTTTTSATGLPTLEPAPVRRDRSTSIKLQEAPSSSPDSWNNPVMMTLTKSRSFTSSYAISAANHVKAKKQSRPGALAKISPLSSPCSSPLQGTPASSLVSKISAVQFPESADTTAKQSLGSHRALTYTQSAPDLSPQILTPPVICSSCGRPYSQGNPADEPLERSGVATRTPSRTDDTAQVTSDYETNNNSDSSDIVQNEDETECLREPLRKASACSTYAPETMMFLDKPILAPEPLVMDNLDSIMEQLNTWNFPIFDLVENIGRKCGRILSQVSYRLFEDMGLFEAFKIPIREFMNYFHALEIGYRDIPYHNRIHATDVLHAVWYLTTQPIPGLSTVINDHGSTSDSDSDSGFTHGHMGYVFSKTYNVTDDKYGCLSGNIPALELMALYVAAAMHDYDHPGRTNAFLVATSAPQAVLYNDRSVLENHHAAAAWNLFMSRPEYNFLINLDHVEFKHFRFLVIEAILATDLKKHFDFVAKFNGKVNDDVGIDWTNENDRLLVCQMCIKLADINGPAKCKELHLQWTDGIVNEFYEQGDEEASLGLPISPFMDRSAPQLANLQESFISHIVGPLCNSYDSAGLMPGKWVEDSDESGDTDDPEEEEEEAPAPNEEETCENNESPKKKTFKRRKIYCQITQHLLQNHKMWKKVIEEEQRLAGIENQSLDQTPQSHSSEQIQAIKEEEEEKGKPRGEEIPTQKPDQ
T1 sequence (O00408 whole entry): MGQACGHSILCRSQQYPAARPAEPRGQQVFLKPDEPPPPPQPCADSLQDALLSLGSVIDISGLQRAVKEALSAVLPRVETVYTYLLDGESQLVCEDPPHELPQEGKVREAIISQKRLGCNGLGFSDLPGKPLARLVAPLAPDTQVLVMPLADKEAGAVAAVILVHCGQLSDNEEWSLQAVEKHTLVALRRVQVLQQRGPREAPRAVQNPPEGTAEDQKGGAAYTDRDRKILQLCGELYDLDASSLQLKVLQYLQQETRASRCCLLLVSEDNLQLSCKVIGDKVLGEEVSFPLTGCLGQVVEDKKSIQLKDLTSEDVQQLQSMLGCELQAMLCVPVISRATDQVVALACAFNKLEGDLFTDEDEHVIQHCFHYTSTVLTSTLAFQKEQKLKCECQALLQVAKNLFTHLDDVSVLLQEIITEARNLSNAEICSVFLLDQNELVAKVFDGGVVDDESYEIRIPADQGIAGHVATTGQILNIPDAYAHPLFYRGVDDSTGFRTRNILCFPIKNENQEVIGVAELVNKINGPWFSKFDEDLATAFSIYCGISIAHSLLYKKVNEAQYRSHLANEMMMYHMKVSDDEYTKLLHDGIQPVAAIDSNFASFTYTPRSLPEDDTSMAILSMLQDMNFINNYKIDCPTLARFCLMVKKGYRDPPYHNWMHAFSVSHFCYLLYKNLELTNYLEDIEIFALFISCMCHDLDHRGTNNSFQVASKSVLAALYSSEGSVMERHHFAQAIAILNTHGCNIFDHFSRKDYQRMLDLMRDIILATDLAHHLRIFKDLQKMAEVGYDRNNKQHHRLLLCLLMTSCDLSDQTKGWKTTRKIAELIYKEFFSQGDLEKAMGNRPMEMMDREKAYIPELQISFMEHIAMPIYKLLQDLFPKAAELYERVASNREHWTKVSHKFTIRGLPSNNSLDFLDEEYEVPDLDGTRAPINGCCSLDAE

Row | SMILES | IC50 [1, 4] [nM] | Emax ([1]; human recombinant PDE2A) [%] | Emax [1] [%] | IC50 [1, 5] [nM] | Emax [2, 6] [%] | IC50 [2, 7] [nM] | Emax [2, 8] [%] | IC50 [2, 9] [nM] | IC50 [3] [nM] | Emax [3] [%] | further results
1 | C[C@@H]1CCN(C(=O)c2ccc3scnc3c2)C[C@H]1c1cc(C(F)F)nc2ncnn12 [Compound 227] | 2.19 | 101 | 101 | 2.19 | 98 | 45.7 | 98 | 45.7 | 380 | 95 | receptor occupancy at 10 mg/kg (PDE2A; sc, route SC (subcutaneous)): 18%
2 | COc1ccc(C(=O)N2CC[C@@H](C)[C@H](c3cc(C(F)F)nc4ncnn34)C2)cn1 [Compound 196] | 23.4 | 99 | 99 | 23.4 | 92 | 562 | – | – | 4900 | 68 | receptor occupancy at 10 mg/kg (PDE2A; po, route PO (oral)): 0%
3 | Cc1cc(C(=O)N2CC[C@@H](C)[C@H](c3cc(C(F)F)nc4ncnn34)C2)c(Cl)cn1 [Compound 51] | 5.5 | 101 | 101 | 5.5 | 86 | 1260 | – | – | > 10000 | 44 | receptor occupancy at 10 mg/kg (PDE2A; po, route PO (oral)): 20%
4 | COc1cc(C(=O)N2[C@H]3CC[C@H](c4cc(C(F)F)nc5ncnn45)[C@@H]2CC3)cc(C)n1 [Compound 290] | – | – | 98 | 5.89 | – | – | 89 | 1410 | 6920 | 53 | receptor occupancy at 10 mg/kg (PDE2A; route PO (oral)): -3%
5 | C[C@@H]1CCN(C(=O)c2cnc(Cl)c(Cl)c2)C[C@H]1c1cc(C(F)F)nc2ncnn12 [Compound 64] | 1.58 | 99 | 99 | 1.58 | 96 | 355 | – | – | 6760 | 62 | receptor occupancy at 10 mg/kg (PDE2A; po, route PO (oral)): 7%
6 | Cc1nocc1C(=O)N1CC[C@@H](C)[C@H](c2cc(C(F)F)nc3ncnn23)C1 [Compound 184] | 28.2 | 100 | 100 | 28.2 | 75 | 2750 | – | – | > 10000 | 17 | receptor occupancy at 10 mg/kg (PDE2A; po, route PO (oral)): -2%
7 | Cc1cc(C(=O)N2CC[C@@H](C)[C@H](c3cc(C#N)nc4ncnn34)C2)cc(C)n1 [Compound 26a] | – | – | – | – | – | – | – | – | – | – | hPDE2A Emax [1]: 21; hPDE2A pIC50 [1]: <5; hPDE2A Emax ([1]; human recombinant PDE2A): 21; hPDE2A pIC50 ([1]; human recombinant PDE2A, 10 μM cGMP substrate): <5; hPDE10A2 Emax ([2]; human clone (h), default): 7; hPDE10A2 pIC50 ([2]; human clone (h), default): <5; hPDE3B Emax [3]: 0
8 | O=C(c1cccc2ncccc12)N1[C@H]2CC[C@H](c3cc(C(F)F)nc4ncnn34)[C@@H]1CC2 [Compound 315] | – | – | 98 | 112 | – | – | 47 | 9770 | > 10000 | 20 | –
9 | Cc1nn(C)cc1C(=O)N1CC[C@@H](C)[C@H](c2cc(C(F)F)nc3ncnn23)C1 [Compound 198] | 5.62 | 98 | 98 | 5.62 | 91 | 417 | – | – | > 10000 | 35 | –
10 | C[C@@H]1CCN(C(=O)c2cncn2C)C[C@H]1c1cc(C(F)F)nc2ncnn12 [Compound 164] | 89.1 | 100 | 100 | 89.1 | 82 | 1950 | – | – | > 10000 | 22 | –
11 | C[C@@H]1CCN(C(=O)c2c[nH]c3ccc(F)cc23)C[C@H]1c1cc(C(F)F)nc2ncnn12 [Compound 112] | 1 | 101 | 101 | 1 | 99 | 47.9 | – | – | 1780 | 84 | –
12 | C[C@@H]1CCN(C(=O)c2cncnc2)C[C@H]1c1cc(C(F)F)nc2ncnn12 [Compound 249] | – | – | 95 | 372 | 45 | > 10000 | 45 | > 10000 | > 10000 | 10 | –
13 | C[C@@H]1CCN(C(=O)c2ccc(C#N)cn2)C[C@H]1c1cc(C(F)F)nc2ncnn12 [Compound 234] | 513 | 96 | 96 | 513 | 59 | 8710 | 59 | 8710 | > 10000 | 22 | –
14 | Cc1cc([C@@H]2CN(C(=O)c3cc(C4CC4)ncc3C3CC3)CC[C@H]2C)n2ncnc2n1 [Compound 390] | – | – | 98 | 2.09 | – | – | 99 | 61.7 | 2570 | 84 | –
15 | COc1cc(C(=O)N2[C@H]3CC[C@H](c4cc(C(F)F)nc5ncnn45)[C@@H]2CC3)ccc1F [Compound 343] | – | – | 102 | 67.6 | – | – | 68 | 4570 | > 10000 | 44 | –
16 | Cc1coc2ccc(C(=O)N3CC[C@@H](C)[C@H](c4cc(C(F)F)nc5ncnn45)C3)cc12 [Compound 92] | 0.398 | 100 | 100 | 0.398 | 98 | 24.5 | – | – | 1320 | 88 | –
17 | O=C(c1ccc2nccnc2c1)N1[C@H]2CC[C@H](c3cc(C(F)F)nc4ncnn34)[C@@H]1CC2 [Compound 381] | – | – | 99 | 7.59 | – | – | 88 | 1320 | – | 48 | –
18 | C[C@@H]1CCN(C(=O)c2cc3ccc(C(F)(F)F)cc3[nH]2)C[C@H]1c1cc(C(F)F)nc2ncnn12 [Compound 94] | 0.501 | 101 | 101 | 0.501 | 97 | 11.7 | – | – | 105 | 99 | –
19 | C[C@@H]1CCN(C(=O)c2ccc(Cl)cn2)C[C@H]1c1cc(C(F)F)nc2ncnn12 [Compound 154] | 51.3 | 100 | 100 | 51.3 | 79 | 2750 | – | – | > 10000 | 50 | –
20 | C[C@@H]1CCN(C(=O)c2ccnn2C)C[C@H]1c1cc(C(F)F)nc2ncnn12 [Compound 57] | 27.5 | 100 | 100 | 27.5 | 78 | 3160 | – | – | > 10000 | 21 | –
21 | C[C@@H]1CCN(C(=O)c2ccc(Br)cn2)C[C@H]1c1cc(C(F)F)nc2ncnn12 [Compound 153] | 43.7 | 100 | 100 | 43.7 | 89 | 1070 | – | – | 3090 | 76 | –
22 | Cc1cc(C(=O)N2CC[C@@H](C)[C@H](c3cc(C(F)F)nc4ncnn34)C2)cc(C)[n+]1[O-] [Compound 402] | – | – | 100 | – | – | – | 87 | 1480 | > 10000 | 28 | IC50 ([1]; hPDE2A pIC50): 26.3 nM
23 | Cc1nc(C(F)(F)F)cc(C(=O)N2CC[C@@H](C)[C@H](c3cc(C(F)F)nc4ncnn34)C2)c1F [Compound 394] | – | – | 99 | 9.33 | – | – | 76 | 2240 | > 10000 | 27 | –
